US20060106028A1, “Polycyclic aromatics and derivatives thereof and processes for their preparation” (priority 2004, published 2006)
pIC50: −log10 of the molar value. Converted amounts (≈) assume the structure as drawn.

How the values were obtained:
36 cancer cell lines = experiment: In vitro cytotoxic activity, mean of all cell lines of the panel; assay type: cell-based; conditions: mean over the 36 cell lines
Experimental: (§1) Culture conditions and activity evaluations of Compound 1 against 36 cancer cell lines were done as described below. Results were expressed as the concentration of drug which inhibits 50% of the cell growth (IC50, calculated using the formula: [Ti/C]×100=−50).
(§2) The compound was dissolved at 10 mM in DMSO. Dilution in vehicle to concentrations of 30, 10, 3, 1 and 0.3 μM were prepared immediately before assays. Depending on the cell line's growth characteristics, 4000-10000 cells were plated in two 96-wells pates (day 0) and incubated for 16 hours. The following day, propidium iodide was added to one of the two plates. Test compound was added to the second plate, as well as vehicle control, and cells further incubated for 96 hours. The compound was tested at each concentration and in triplicates. The equivalent cell number was determined after adding propidium iodide by measuring the signal by fluorescence (Ti for test article, C for control).

[1] = tested on: Streptococcus pneumoniae PenR (LSPQ 3349); experiment: Antibacterial activity, MIC (NCCLS M7-A5); assay type: cell-based; conditions: MH medium +2% lysed horse blood
[2] = Acute toxicity in CD-1 nu/nu mice; assay type: in vivo; conditions: CD-1 nu/nu, mouse, in vivo, 6% Tween/4.5% Glycocholate/5% EtOH formulation
Experimental: (§3) Toxicity and therapeutic efficacy of polycyclic aromatic compounds can be determined by standard pharmaceutical procedures in cell cultures or experimental animals. Therapeutic efficacy is determined in animal models as described above and in the examples herein. Toxicity studies are done to determine the lethal dose for 10% of tested animals (LD10). Animals are treated at the maximum tolerated dose (MTD): the highest dose not producing mortality or greater than 20% body weight loss. The effective dose (ED) is related to the MTD in a given tumor model to determine the therapeutic index of the compound.
(§4) In vivo toxicity: With CD1 mice, the maximum tolerated dose (MTD) for a single-dose via i.v. or i.p. routes in 1% SDS formulation was ≧5 mg/kg. The acute toxicity in CD-1 nu/nlu mice of Compound 1 was also determined in 6% Tween/4.5% Glycocholate/5% EtOH formulation.

CD-1 nu/nlu mice = experiment: Acute toxicity in CD-1 nu/nu mice; assay type: in vivo; conditions: i.v.; 6% Tween/4.5% Glycocholate/5% EtOH formulation
Experimental: as §3, §4

[3] = tested on: Clostridium difficile (ATCC™ 9689); experiment: Antibacterial activity, MIC (NCCLS M11-A5, anaerobic); assay type: cell-based; conditions: Clostridioides difficile; Brucella medium with hemin, vitamin K1 and 5% lysed horse blood; read-out: MIC
Experimental: Antibacterial activity of Compounds 1 and 2 (Table 7) was measured by determining the minimal inhibitory concentration (MIC) necessary to obtain a complete inhibition of bacteria growth in seven indicator strains, namely Staphylococcus aureus (ATCC™ 6538P), Staphylococcus aureus MRS3 (ATCC™ 700699), Enterococcus faecalis VRE-1 (ATCC™ 29212), Enterococcus faecalis VRE-2 (ATCC™ 51299), Escherichia coli (ATCC™ 25922), Streptococcus pneumoniae (LSPQ 3412) and Streptococcus pneumoniae PenR (LSPQ 3349). Indicator strains preparation and MIC determination were performed according to the National Committee for Clinical Laboratory Standards (NCCLS) guideline M7-A5 Methods for Dilution Antimicrobial Susceptibility Tests for Bacteria That Grow Aerobically; Approved Standard-Fifth Edition. (NCCLS document M7-A5, ISBN 1-56238-394-9; NCCLS, 940 West Valley Road, Suite 1400, Wayne, Pa. 19087-1898 USA), the content of which is incorporated herein by reference. MIC determination against C. difficile was performed according to National Committee for Clinical Laboratory Standards (NCCLS) guideline M11-A5 Methods for Antimicrobial Susceptibility Testing of Anaerobic Bacteria.
Compounds 1 and 2 were prepared as 100× stock solutions in DMSO, with concentrations ranging from 3.2 mg/mL to 0.003 mg/mL (a two-fold dilution series over 11 points). An aliquot of each 100× stock solution was diluted 50-fold in test medium described below to give a set of eleven (11) 2× solutions. 50 μL of each of the eleven 2× solutions was aliquoted into the corresponding well of a 12-well row, with the final well reserved for medium alone control.
Vancomycin (Sigma™), used as positive control compound, was prepared as 2× stock solutions in Mueller-Hinton test medium ranging from 64 μg/mL to 0.06 μg/ml (a two-fold dilution series over 11 points). An aliquot of 50 μL corresponding to each concentration (at 2×) was then transferred to 96-well microplates to obtain a series of eleven two-fold dilutions.
An isolated colony of each of the indicator strains was used to inoculate tubes containing 2 mL of test medium. […]

CRL nu/nu mice = experiment: Repeated dose toxicity in CRL nu/nu mice; assay type: in vivo
Experimental: Repeated dose toxicity was evaluated in CRL nu/nu mice (6% Tween/4.5% Glycocholate/5% EtOH formulation). The MTTD (maximum total tolerated dose) was 25 mg/kg with a qd×4 dosage regimen.

[4] = tested on: Staphylococcus aureus MRS3 (ATCC™ 700699); experiment: Antibacterial activity, MIC (NCCLS M7-A5); assay type: cell-based; conditions: MH medium, 35° C., 16 to 20 hours
[5] = tested on: Enterococcus faecalis VRE-2 (ATCC™ 51299); experiment: Antibacterial activity, MIC (NCCLS M7-A5); assay type: cell-based; conditions: BHI+ medium, 35° C., 16 to 20 hours
T24 (Bladder) = experiment: In vitro cytotoxic activity, 36 tumor cell lines panel; assay type: cell-based; conditions: 96 hours
Experimental: as §1, §2

529L (Lung) = experiment: as above; assay type: cell-based; conditions: 96 hours
Experimental: as §1, §2

[6] = tested on: PC-3 (prostate adenocarcinoma); experiment: In vitro tumor growth inhibition (GI50, propidium iodide); assay type: cell-based; conditions: 96 hrs

SMILES: CCC(C)c1cc2c(=O)c3ccc4c(OC)c5c(=O)c6c(O)ccc(O)c6c(=O)c5c(O)c4c3c(=O)c2c(=O)n1CC(=O)N1CC(C(=O)O)NC(=O)C1C (stereo not shown) [Compound 1]
- pIC50 (36 cancer cell lines): 5.03
- MIC [1]: 4 to 16 µg/mL (≈ 5.42 to 21.7 µM)
- MTD ([2]; ip): ≥ 50 mg/kg
- MTD ([2]; iv): 25 mg/kg
- Injection site observation (CD-1 nu/nlu mice): necrosis at the injection site was observed
- MIC [3]: 0.06 µg/mL (≈ 0.0813 µM)
- MTTD (maximum total tolerated dose) (CRL nu/nu mice; qd×4 dosage regimen, 6% Tween/4.5% Glycocholate/5% EtOH formulation): 25 mg/kg
- Organ findings following repeated dosage (CRL nu/nu mice; spleen and liver, repeated dosage): Adaptive hypertrophy and hyperplasia were observed in spleen and liver
- MIC [4]: 0.016 µg/mL (≈ 0.0217 µM)
- MIC [5]: 0.125 µg/mL (≈ 0.169 µM)
- pIC50 (T24 (Bladder)): 5.29
- pIC50 (529L (Lung)): 5.66
- GI50 [6]: 11.1 µM
